The compounds below were run against Pim-1 (Homo sapiens (Human), UniProt P11309) (assay: Pim kinase binding activity assay (Example 901), PIM-1 enzyme, Caliper microfluidic peptide phosphorylation). Details: 20 pM PIM-1, 10 μM ATP, 1 μM FAM-peptide, 90 minutes at room temperature.
Assay type: biochemical
Procedure, shortened: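 The readout was microfluidic mobility-shift separation of a FAM-tagged Pim-specific peptide, excited at 488 nm and read at 530 nm, with Ki calculated from percent conversion. Reactions held 20 pM PIM-1, 1 μM peptide and 10 μM ATP in pH 7.2 HEPES/MgCl2/DTT buffer, ran 90 min at room temperature and were stopped with EDTA.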

Pim-1, sequence (P11309 whole entry): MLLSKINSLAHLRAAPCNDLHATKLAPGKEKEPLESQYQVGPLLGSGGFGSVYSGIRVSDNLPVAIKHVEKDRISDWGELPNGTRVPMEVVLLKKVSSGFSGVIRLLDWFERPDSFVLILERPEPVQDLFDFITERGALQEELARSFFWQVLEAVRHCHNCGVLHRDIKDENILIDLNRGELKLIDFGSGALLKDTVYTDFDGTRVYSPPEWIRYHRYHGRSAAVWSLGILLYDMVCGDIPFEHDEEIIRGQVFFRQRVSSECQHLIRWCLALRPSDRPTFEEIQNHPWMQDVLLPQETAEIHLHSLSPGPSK

SMILES	Ki [nM]
Cc1ccc(-c2n[nH]c3cnc(-c4cnn(C)c4)cc23)nc1N1C[C@@H](N)C[C@@H](F)C1 [Example 509, (3S,5R)-5-fluoro-1-(3-methyl-6-(5-(1-methyl-1H-pyrazol-4-yl)-1H-pyrazolo[3,4-c]pyridin-3-yl)pyridin-2-yl)piperidin-3-amine]	0.056
Fc1ccccc1-c1n[nH]c2cnc(-c3cncs3)cc12 [Example 348, 5-(3-(2-fluorophenyl)-1H-pyrazolo[3,4-c]pyridin-5-yl)thiazole]	26.8
NC1CCCN(c2cncc(-c3cc4c(-c5ccccc5F)n[nH]c4cn3)c2)CC1 (stereo not drawn) [Example 166, 1-(5-(3-(2-fluorophenyl)-1H-pyrazolo[3,4-c]pyridin-5-yl)pyridin-3-yl)azepan-4-amine]	0.574
c1ccc(-c2n[nH]c3cnc(-c4cncs4)cc23)cc1 [Example 323, 5-(3-phenyl-1H-pyrazolo[3,4-c]pyridin-5-yl)thiazole]	33
c1cncc(-c2cc3c(-c4cccc(N5CCNCC5)n4)n[nH]c3cn2)c1 [Example 162, 3-(6-(piperazin-1-yl)pyridin-2-yl)-5-(pyridin-3-yl)-1H-pyrazolo[3,4-c]pyridine]	0.037
CCn1cc(-c2cc3c(-c4cc(C)cc(N5CCCNCC5)n4)n[nH]c3cn2)cn1 [Example 457, 3-(6-(1,4-diazepan-1-yl)-4-methylpyridin-2-yl)-5-(1-ethyl-1H-pyrazol-4-yl)-1H-pyrazolo[3,4-c]pyridine]	0.049
Cn1cc(-c2cc3c(-c4ccc(C5CC5)c(N5CCC[C@H](N)C5)n4)n[nH]c3cn2)cn1 [Example 486, (S)-1-(3-cyclopropyl-6-(5-(1-methyl-1H-pyrazol-4-yl)-1H-pyrazolo[3,4-c]pyridin-3-yl)pyridin-2-yl)piperidin-3-amine]	0.009
Fc1cccc(-c2n[nH]c3cnc(-c4cccnc4)cc23)n1 [Example 131, 3-(6-fluoropyridin-2-yl)-5-(pyridin-3-yl)-1H-pyrazolo[3,4-c]pyridine]	13.1
N[C@@H]1CN(c2cccc(-c3n[nH]c4cnc(-c5cccnc5)cc34)n2)CC[C@@H]1F (relative stereo) [Example 452, cis-4-fluoro-1-(6-(5-(pyridin-3-yl)-1H-pyrazolo[3,4-c]pyridin-3-yl)pyridin-2-yl)piperidin-3-amine]	0.046
Fc1ccccc1-c1n[nH]c2cnc(-c3cnccc3OC3CCNCC3)cc12 [Example 195, 3-(2-fluorophenyl)-5-(4-(piperidin-4-yloxy)pyridin-3-yl)-1H-pyrazolo[3,4-c]pyridine]	0.567
C=C(C)c1ccnc(-c2n[nH]c3cnc(-c4cnn(CC)c4)cc23)c1 [Example 500, 5-(1-ethyl-1H-pyrazol-4-yl)-3-(4-(prop-1-en-2-yl)pyridin-2-yl)-1H-pyrazolo[3,4-c]pyridine]	54.1
CCCCc1ccc(-c2n[nH]c3cnc(-c4cccnc4)cc23)nc1N1CCC[C@H](N)C1 [Example 362, (S)-1-(3-butyl-6-(5-(pyridin-3-yl)-1H-pyrazolo[3,4-c]pyridin-3-yl)pyridin-2-yl)piperidin-3-amine]	0.079
c1cncc(-c2cc3c(-c4cnn(CC5CCNCC5)c4)n[nH]c3cn2)c1 [Example 186, 3-(1-(piperidin-4-ylmethyl)-1H-pyrazol-4-yl)-5-(pyridin-3-yl)-1H-pyrazolo[3,4-c]pyridine]	0.717
N#CCn1cc(-c2cc3c(-c4cccc(N5CCNCC5)n4)n[nH]c3cn2)cn1 [Example 473, 2-(4-(3-(6-(piperazin-1-yl)pyridin-2-yl)-1H-pyrazolo[3,4-c]pyridin-5-yl)-1H-pyrazol-1-yl)acetonitrile]	0.022
N#CCc1n[nH]c2cnc(-c3cccnc3)cc12 [Example 134, 2-(5-(pyridin-3-yl)-1H-pyrazolo[3,4-c]pyridin-3-yl)acetonitrile]	826
Cc1ccc(-c2n[nH]c3cnc(-c4cccnc4)cc23)nc1N1CC[C@H](N)C1 [Example 317, (S)-1-(3-methyl-6-(5-(pyridin-3-yl)-1H-pyrazolo[3,4-c]pyridin-3-yl)pyridin-2-yl)pyrrolidin-3-amine]	0.059
NC(=O)C1(N)CCN(c2cccc(-c3n[nH]c4cnc(-c5cccnc5)cc34)n2)CC1 [Example 229, 4-amino-1-(6-(5-(pyridin-3-yl)-1H-pyrazolo[3,4-c]pyridin-3-yl)pyridin-2-yl)piperidine-4-carboxamide]	0.22
N[C@H]1CCN(c2ccc(-c3n[nH]c4cnc(-c5cccnc5)cc34)cn2)C1 [Example 202, (S)-1-(5-(5-(pyridin-3-yl)-1H-pyrazolo[3,4-c]pyridin-3-yl)pyridin-2-yl)pyrrolidin-3-amine]	1
c1cncc(-c2cc3c(-c4ccncc4)n[nH]c3cn2)c1 [Example 194, 5-(pyridin-3-yl)-3-(pyridin-4-yl)-1H-pyrazolo[3,4-c]pyridine]	8.77
Cc1n[nH]c2cnc(-c3cncc(N4CCC(N)CC4)n3)cc12 [Example 110, 1-(6-(3-methyl-1H-pyrazolo[3,4-c]pyridin-5-yl)pyrazin-2-yl)piperidin-4-amine]	5.8
O=C1N(CC2CCNC2)CCN1c1n[nH]c2cnc(-c3cccnc3)cc12 (stereo not drawn) [Example 303, 1-(5-(pyridin-3-yl)-1H-pyrazolo[3,4-c]pyridin-3-yl)-3-(pyrrolidin-3-ylmethyl)imidazolidin-2-one]	4.11
CCc1ccnc(-c2n[nH]c3cnc(-c4cnn(CC)c4)cc23)c1 [Example 493, 5-(1-ethyl-1H-pyrazol-4-yl)-3-(4-ethylpyridin-2-yl)-1H-pyrazolo[3,4-c]pyridine]	43.6
N[C@@H]1CCCN(c2nc(-c3n[nH]c4cnc(-c5cccnc5)cc34)ccc2Br)CC1 [Example 313, (R)-1-(3-bromo-6-(5-(pyridin-3-yl)-1H-pyrazolo[3,4-c]pyridin-3-yl)pyridin-2-yl)azepan-4-amine]	0.028
c1cncc(-c2cc3c(-c4ccn(C5CCNCC5)n4)n[nH]c3cn2)c1 [Example 215, 3-(1-(piperidin-4-yl)-1H-pyrazol-3-yl)-5-(pyridin-3-yl)-1H-pyrazolo[3,4-c]pyridine]	0.313
[O-][n+]1cc(C(F)(F)F)ccc1-c1n[nH]c2cnc(-c3cccnc3)cc12 [Example 354]	97.9
c1ccc(-c2n[nH]c3cnc(-n4ccnc4)cc23)cc1 [Example 146, 5-(1H-imidazol-1-yl)-3-phenyl-1H-pyrazolo[3,4-c]pyridine]	26.7
Cn1ccc(-c2n[nH]c3cnc(-c4cccnc4)cc23)n1 [Example 232, 3-(1-methyl-1H-pyrazol-3-yl)-5-(pyridin-3-yl)-1H-pyrazolo[3,4-c]pyridine]	7.16
Cc1ccc(-c2n[nH]c3cnc(-c4cccnc4)cc23)nc1N1CCC[C@H](N)C1 [Example 315, (S)-1-(3-methyl-6-(5-(pyridin-3-yl)-1H-pyrazolo[3,4-c]pyridin-3-yl)pyridin-2-yl)piperidin-3-amine]	0.00806
O=C1CCCN1c1n[nH]c2cnc(-c3cccnc3)cc12 [Example 258, 1-(5-(pyridin-3-yl)-1H-pyrazolo[3,4-c]pyridin-3-yl)pyrrolidin-2-one]	80.9
Cc1ccc(-c2n[nH]c3cnc(-c4cccnc4)cc23)nc1N1CCC(N)CC1 [Example 243, 1-(3-methyl-6-(5-(pyridin-3-yl)-1H-pyrazolo[3,4-c]pyridin-3-yl)pyridin-2-yl)piperidin-4-amine]	0.049

From patent US9260425B2 (Genetech, Inc., priority 2011, dated 2016)
